Data from patent US20010046992A1, “Treatment of urinary tract infections with antibacterial oxazolidinones” (priority 2000, published 2001).

Experiment: loss of linezolid in IV solution during and following terminal moist heat sterilization in the container
Assay type: physicochemical
Conditions: container-solution contact surface made of at least 50% polyolefin
Description: It is well known to those skilled in the art that pharmaceutical agents administered IV must be sterile. While there are a number of methods to sterilize an IV solution, it is preferred to terminally moist heat or steam sterilize IV solutions of antibacterial oxazolidinones including those of linezolid. When the term terminally “moist heat sterilize” is used, it refers to and includes steam sterilization.
When terminally moist heat sterilizing an IV solution, the solution is placed in the container in which (1) it will be stored and then transferred to the container from which it will ultimately be administered, or (2) stored and then ultimately administered from the same container to deliver the IV solution to the patient. Therefore, it is imperative that the pharmaceutically active ingredient (oxazolidinone, linezolid) not react with the container in which it is to be terminally moist heat sterilized and stored/stored-administered.
What is essential is that the container-solution contact surface material be primarily a polyolefin; the remainder of the container can be made from polyolefin or other materials. It is preferred that the container-solution contact surface is made of from about 50 to about 100% polyolefin. It is more preferred that the container-solution contact surface is made of from about 70 to about 90% polyolefin. […]

With CC(=O)NC[C@H]1CN(c2ccc(N3CCOCC3)c(F)c2)C(=O)O1 [linezolid, (S)-N-[[3-[3-fluoro-4-(4-morpholinyl)phenyl]-2-oxo-5-oxazolidinyl]methyl]acetamide] the “loss of linezolid during and following terminal moist heat sterilization” value was “significantly much less loss”.
